US20060122106A1, “Prevention and/or treatment of inflammatory bowel disease using pyy or agonists thereof” (Amylin Pharmaceuticals, Inc, priority 2002, published 2006)

System: rat model of chronic colonic inflammation (colitis induced by TNBS)
Experiment: TNBS hapten-induced colitis model of inflammatory bowel disease (Example 1)
Type: in vivo
Settings: for gross morphologic damage score index: male HSD rats, colitis by 30 mg/kg TNBS intracolonic, colon scored (0-5, Table 1) four days after induction, saline control 3.24±0.66, PYY[3-36] 900 μg/kg s.c. twice daily, Depo-Medrol 600 μg/kg i.m., 5-ASA 200 mg/kg intracolonic; for spleen weight (systemic immune suppression): rat, in vivo
Method: Animal preparation: 10-11 weeks old male HSD rats, ranging 250-300 grams, were housed in a 12:12 light:dark cycle, and allowed ad libitum access to a standard rodent diet (Teklad L M 485, Madison, Wis.) and water. The animals were fasted for 24 hours before the experiment. Procedure: A simple and reproducible rat model of chronic colonic inflammation has been previously described by Morris G P, et al., “Hapten-induced model of chronic inflammation and ulceration in the rat colon.” Gastroenterology. 1989; 96:795-803. […] Rats were anesthetized with 3% isofluorane and placed on a regulated heating pad set at 37° C. A gavage needle was inserted rectally into the colon 7 cm. The hapten trinitrobenzenesulfonic acid (TNBS) dissolved in 50% ethanol (v/v) was delivered into the lumen of the colon through the gavage needle at a dose of 30 mg/kg, in a total volume of 0.4-0.6 mL, as described in Mazelin, supra. Control groups received saline solution (NaCl 0.9%) intracolonically. Four days after induction of colitis, the colon was resected from anesthetized rats, which were then euthanized by decapitation. Weights of excised colon and spleen were measured, and the colons photographed for scoring of gross morphologic damage according to Table 1 before division into 3 parts. The segment of colon 1 cm from the cecum was fixed in 10% formalin. Other segments were immediately frozen on dry ice. Inflammation was defined as regions of hyperemia and bowel wall thickening. […] [table] For this assay, 5 treatment groups were set up as follows: • Group A (n=3). intracolonic saline with subcutaneous treatment of saline; • Group B (n=8). subcutaneous treatment of saline prior to induction of colitis by 30 mg/kg TNBS; • Group C (n=10). […] Positive control—intramuscular injection of Depo-Medrol 600 μg/kg 60 min prior to induction of colitis by 30 mg/kg TNBS; • Group E (n=10). Positive control, 5-amino salicylic acid (Sigma) suspension at 200 mg/kg intracolonic administration in 0.5 mL saline, 60 min before induction of colitis and daily thereafter. Results

| spleen weight (systemic immune suppression) | SMILES | gross morphologic damage score index |
| --- | --- | --- |
| not decreased | Nc1ccc(O)c(C(=O)O)c1 [5-ASA, 5-aminosalicylic acid] | 1.62±0.62 |
| decreased | CC(=O)OCC(=O)[C@@]1(O)CC[C@H]2[C@@H]3C[C@H](C)C4=CC(=O)C=C[C@]4(C)[C@H]3[C@@H](O)C[C@@]21C [Depo-Medrol] | 1.12±0.26 |
